The values that follow come from patent US20110172147A1, “NEUROPEPTIDE-2 RECEPTOR (Y-2R) AGONISTS” (priority 2009, published 2011).

*1 amine or outer side, *2 acyl side, *3 side chain or, on linkers, in order; H or OH if unused. Where a SMILES comes first, the peptide text is derived from it. [ ]: non-standard residue; d: D form. The star is where a group is joined. CH3O(CH2CH2O)11CH2CH2CO = COCCOCCOCCOCCOCCOCCOCCOCCOCCOCCOCCOCCC(=O)*; X1 = O=C(Cn1cnc2ccc(N3CCN([*:1])CC3)cc2c1=O)[*:2]; Arachidoyl = CCCCCCCCCCCCCCCCCCCC(=O)*

Format in all cases: cell-based
In experiment [1] the target is T1, hNPY2R (Homo sapiens, UniProt P49146).
T1 sequence (P49146 1-381): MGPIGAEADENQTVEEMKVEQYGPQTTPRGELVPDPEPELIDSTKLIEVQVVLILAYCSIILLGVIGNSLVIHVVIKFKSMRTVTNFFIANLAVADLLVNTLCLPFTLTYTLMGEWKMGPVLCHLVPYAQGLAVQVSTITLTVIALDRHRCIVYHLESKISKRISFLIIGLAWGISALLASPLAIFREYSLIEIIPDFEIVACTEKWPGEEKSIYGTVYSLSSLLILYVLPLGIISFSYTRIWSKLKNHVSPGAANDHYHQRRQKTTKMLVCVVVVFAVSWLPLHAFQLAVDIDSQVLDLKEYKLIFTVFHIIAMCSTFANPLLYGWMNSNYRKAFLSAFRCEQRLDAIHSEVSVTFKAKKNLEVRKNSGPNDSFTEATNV
Briefly: CaFlux Assay (FLIPR), Y2R. Further details: expressed in transfected cells; host or cells: HEK-293 stably transfected with G protein chimera Gαqi9. The method, boiled down:
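Read-out was the peak increase in Calcium-3 fluorescence on FLIPR, monitored 100 s after compound addition, with each well's pre-stimulation reading as zero and data given as % of the positive control's maximal response. Cells were HEK-293 stably carrying Gαqi9 plus receptor.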

In experiment [2] the target is Y4R (Homo sapiens, UniProt P50391). Briefly: CaFlux Assay (FLIPR), Y4R.
Sequence of Y4R (P50391 whole entry): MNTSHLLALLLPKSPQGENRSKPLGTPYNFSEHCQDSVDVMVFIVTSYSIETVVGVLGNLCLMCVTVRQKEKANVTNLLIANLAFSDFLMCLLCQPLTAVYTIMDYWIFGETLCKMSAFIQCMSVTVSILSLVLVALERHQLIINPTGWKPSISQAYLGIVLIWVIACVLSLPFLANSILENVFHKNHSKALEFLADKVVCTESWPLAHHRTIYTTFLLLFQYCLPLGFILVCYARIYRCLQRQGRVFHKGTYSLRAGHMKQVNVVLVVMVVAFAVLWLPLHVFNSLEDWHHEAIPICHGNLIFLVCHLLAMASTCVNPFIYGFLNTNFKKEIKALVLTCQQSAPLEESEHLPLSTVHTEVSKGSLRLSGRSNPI
Experiment [3] deals with T2, Y1R (Homo sapiens, UniProt P25929).
T2 sequence (P25929 1-384): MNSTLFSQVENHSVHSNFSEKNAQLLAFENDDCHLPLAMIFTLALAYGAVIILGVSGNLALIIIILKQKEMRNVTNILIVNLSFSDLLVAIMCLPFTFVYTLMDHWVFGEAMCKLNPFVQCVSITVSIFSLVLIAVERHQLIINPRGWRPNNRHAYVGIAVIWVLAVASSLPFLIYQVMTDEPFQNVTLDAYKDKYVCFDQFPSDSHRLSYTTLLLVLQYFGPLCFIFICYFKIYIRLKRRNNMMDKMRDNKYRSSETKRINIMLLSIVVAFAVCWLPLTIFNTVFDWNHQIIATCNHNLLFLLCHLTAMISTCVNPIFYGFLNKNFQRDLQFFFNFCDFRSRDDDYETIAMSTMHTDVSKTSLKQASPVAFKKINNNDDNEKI
Briefly: CaFlux Assay (FLIPR), Y1R.

The target of experiment [4] is T3, Y5R (Homo sapiens, UniProt Q15761).
T3 sequence (Q15761 1-445): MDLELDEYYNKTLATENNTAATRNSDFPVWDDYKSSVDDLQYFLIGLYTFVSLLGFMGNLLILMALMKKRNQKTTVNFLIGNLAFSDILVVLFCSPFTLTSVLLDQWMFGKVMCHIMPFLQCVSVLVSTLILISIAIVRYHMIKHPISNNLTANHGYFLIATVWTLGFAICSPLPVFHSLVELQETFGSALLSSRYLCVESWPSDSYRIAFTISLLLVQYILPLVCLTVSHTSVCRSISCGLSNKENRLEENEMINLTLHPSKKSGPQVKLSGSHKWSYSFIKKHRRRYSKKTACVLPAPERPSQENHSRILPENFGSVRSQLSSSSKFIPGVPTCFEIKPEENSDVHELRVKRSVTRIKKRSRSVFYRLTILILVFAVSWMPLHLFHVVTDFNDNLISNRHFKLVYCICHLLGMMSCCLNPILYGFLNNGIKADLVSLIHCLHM
The experiment in a line: CaFlux Assay (FLIPR), Y5R.

Experiment [5] addresses T1, hNPY2R. Briefly: cAMP Agonist Assay, HEK293/hNPY2R. Also on record: expressed in transfected cells; host or cells: HEK293/hNPY2R (G418 selection). The method, boiled down:
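HEK293/hNPY2R cells (10,000/well, overnight) stimulated 30 min at room temperature with compound plus 5 μM forskolin and 0.5 mM IBMX (1.1% DMSO final). Lysate cAMP measured by competitive chemiluminescent ELISA (AP conjugate, CSPD substrate); quadruplicates.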

As for `CCCCCCCCCCCCCCCC(=O)NCCCCCC(=O)NCCCCCC(=O)N[C@H](C(=O)N[C@@H](CCCCNC(=O)CCOCCOCCOCCOCCOCCOCCOCCOCCOCCOCCOCCOCCOCCOCCOCCOCCOCCOCCOCCOCCOCCOCCOCCOC)C(=O)N1CCN(c2ccc3ncn(CC(=O)N[C@@H](CCCNC(=N)N)C(=O)N[C@@H](Cc4c[nH]cn4)C(=O)N[C@@H](Cc4ccc(O)cc4)C(=O)N[C@@H](CC(C)C)C(=O)N[C@@H](CC(N)=O)C(=O)N[C@@H](Cc4c[nH]c5ccccc45)C(=O)N[C@H](C(=O)N[C@H](C(=O)N[C@@H](CCCNC(=N)N)C(=O)N[C@@H](CCC(N)=O)C(=O)N(C)[C@@H](CCCNC(=N)N)C(=O)N[C@@H](Cc4ccc(O)cc4)C(N)=O)[C@@H](C)O)C(C)C)c(=O)c3c2)CC1)[C@@H](C)CC` [Example 42], the EC50 in experiment [1] was 0.069 nM; in experiment [2] it was above 6000 nM; in experiment [3], above 6000 nM; in experiment [4] it was 815 nM; in experiment [5], 0.13 nM.

Regarding `CCCCCCCCCCCCCCCCCCCC(=O)N[C@@H](CCC(=O)O)C(=O)N[C@@H](CCC(=O)O)C(=O)N[C@@H](C(=O)N[C@@H](CCCCNC(=O)CCOCCOCCOCCOCCOCCOCCOCCOCCOCCOCCOCCOCCOCCOCCOCCOCCOCCOCCOCCOCCOCCOCCOCCOC)C(=O)N1CCN(c2ccc3ncn(CC(=O)N[C@@H](CCCNC(=N)N)C(=O)N[C@@H](Cc4c[nH]cn4)C(=O)N[C@@H](Cc4ccc(O)cc4)C(=O)N[C@@H](CC(C)C)C(=O)N[C@@H](CC(N)=O)C(=O)N[C@@H](Cc4c[nH]c5ccccc45)C(=O)N[C@H](C(=O)N[C@H](C(=O)N[C@@H](CCCNC(=N)N)C(=O)N[C@@H](CCC(N)=O)C(=O)N(C)[C@@H](CCCNC(=N)N)C(=O)N[C@@H](Cc4ccc(O)cc4)C(N)=O)[C@@H](C)O)C(C)C)c(=O)c3c2)CC1)[C@@H](C)CC` [Example 53], the EC50 in experiment [1] was 0.66 nM; in experiment [2], above 6000 nM; in experiment [3], above 6000 nM; in experiment [4], above 6000 nM; in experiment [5], 0.56 nM.

In the case of `CCCCCCCCCCCCCCCC(=O)NCCOCCNC(=O)CCC(=O)NCCCC[C@H](NC(=O)[C@@H](NC(=O)CCOCCOCCOCCOCCOCCOCCOCCOCCOCCOCCOCCOCCOCCOCCOCCOCCOCCOCCOCCOCCOCCOCCOCCOC)[C@@H](C)CC)C(=O)N1CCN(c2ccc3ncn(CC(=O)N[C@@H](CCCNC(N)=O)C(=O)N[C@@H](Cc4c[nH]cn4)C(=O)N[C@@H](Cc4ccc(O)cc4)C(=O)N[C@@H](CC(C)C)C(=O)N[C@@H](CC(N)=O)C(=O)N[C@@H](Cc4c[nH]c5ccccc45)C(=O)N[C@H](C(=O)N[C@H](C(=O)N[C@@H](CCCNC(=N)N)C(=O)N[C@@H](CCC(N)=O)C(=O)N(C)[C@@H](CCCNC(=N)N)C(=O)N[C@@H](Cc4ccc(O)cc4)C(N)=O)[C@@H](C)O)C(C)C)c(=O)c3c2)CC1` [Example 16], the EC50 in experiment [1] was 0.059 nM; in experiment [2], above 5000 nM; in experiment [3] it was above 5000 nM; in experiment [4], 1360 nM; in experiment [5] it was 0.09 nM.

With `CCCCCCCCCCCCCCCC(=O)NCCCCCC(=O)NCCCCCC(=O)N[C@@H](C(=O)N[C@@H](CCCCNC(=O)CCOCCOCCOCCOCCOCCOCCOCCOCCOCCOCCOCCOCCOCCOCCOCCOCCOCCOCCOCCOCCOCCOCCOCCOC)C(=O)N1CCN(c2ccc3ncn(CC(=O)N[C@@H](CCCNC(=N)N)C(=O)N[C@@H](Cc4c[nH]cn4)C(=O)N[C@@H](Cc4ccc(O)cc4)C(=O)N[C@@H](CC(C)C)C(=O)N[C@@H](CC(N)=O)C(=O)N[C@@H](Cc4c[nH]c5ccccc45)C(=O)N[C@H](C(=O)N[C@H](C(=O)N[C@@H](CCCNC(=N)N)C(=O)N[C@@H](CCC(N)=O)C(=O)N(C)[C@@H](CCCNC(=N)N)C(=O)N[C@@H](Cc4ccc(O)cc4)C(N)=O)[C@@H](C)O)C(C)C)c(=O)c3c2)CC1)[C@@H](C)CC` [Example 43], the EC50 in experiment [1] was 0.1 nM; in experiment [2], above 6000 nM; in experiment [3] it was above 6000 nM; in experiment [4], 316 nM; in experiment [5] it was 0.1 nM.

With `CCCCCCCCCCCCCCCCCCCC(=O)N[C@@H](CCC(=O)O)C(=O)N[C@@H](CCC(=O)O)C(=O)N[C@H](C(=O)N[C@@H](CCCCNC(=O)CCOCCOCCOCCOCCOCCOCCOCCOCCOCCOCCOCCOC)C(=O)N1CCN(c2ccc3ncn(CC(=O)N[C@@H](CCCNC(=N)N)C(=O)N[C@@H](Cc4c[nH]cn4)C(=O)N[C@@H](Cc4ccc(O)cc4)C(=O)N[C@@H](Cc4c[nH]cn4)C(=O)N[C@@H](CC(N)=O)C(=O)N[C@@H](Cc4c[nH]c5ccccc45)C(=O)N[C@H](C(=O)N[C@H](C(=O)N[C@@H](CCCNC(=N)N)C(=O)N[C@@H](CCC(N)=O)C(=O)N[C@@H](CCCNC(=N)N)C(=O)N[C@@H](Cc4ccc(O)cc4)C(N)=O)[C@@H](C)O)C(C)C)c(=O)c3c2)CC1)[C@@H](C)CC` [Example 55] (Arachidoyl-EEIK(CH3O(CH2CH2O)11CH2CH2CO)[X1]RHYHNWVTRQRY-NH2), the EC50 in experiment [1] was 0.027 nM; in experiment [2], above 6000 nM; in experiment [3], above 6000 nM; in experiment [4] it was 8.66 nM; in experiment [5], 0.014 nM.

Consider `CCCCCCCCCCCCCCCCCCCC(=O)N[C@@H](CCC(=O)N[C@@H](CCC(=O)NCCCC[C@H](NC(=O)[C@@H](NC(=O)CCOCCOCCOCCOCCOCCOCCOCCOC)[C@@H](C)CC)C(=O)N1CCN(c2ccc3ncn(CC(=O)N[C@@H](CCCNC(=N)N)C(=O)N[C@@H](Cc4c[nH]cn4)C(=O)N[C@@H](Cc4ccc(O)cc4)C(=O)N[C@@H](CC(C)C)C(=O)N[C@@H](CC(N)=O)C(=O)N[C@@H](Cc4c[nH]c5ccccc45)C(=O)N[C@H](C(=O)N[C@H](C(=O)N[C@@H](CCCNC(=N)N)C(=O)N[C@@H](CCC(N)=O)C(=O)N(C)[C@@H](CCCNC(=N)N)C(=O)N[C@@H](Cc4ccc(O)cc4)C(N)=O)[C@@H](C)O)C(C)C)c(=O)c3c2)CC1)C(=O)O)C(=O)O` [Example 23], for which the EC50 in experiment [1] was 0.295 nM; in experiment [2], above 9000 nM; in experiment [3] it was above 9000 nM; in experiment [4] it was 2210 nM; in experiment [5], 0.05 nM.

In the case of `CCCCCCCCCCCCCCCCCCCC(=O)N[C@@H](CCC(=O)O)C(=O)N[C@@H](CCC(=O)O)C(=O)N[C@H](C(=O)N[C@@H](CCCCNC(=O)CCOCCOCCOCCOCCOCCOCCOCCOCCOCCOCCOCCOCCOCCOCCOCCOC)C(=O)N1CCN(c2ccc3ncn(CC(=O)N[C@@H](CCCNC(N)=O)C(=O)N[C@@H](Cc4c[nH]cn4)C(=O)N[C@@H](Cc4ccc(O)cc4)C(=O)N[C@@H](CC(C)C)C(=O)N[C@@H](CC(N)=O)C(=O)N[C@@H](Cc4c[nH]c5ccccc45)C(=O)N[C@H](C(=O)N[C@H](C(=O)N[C@@H](CCCNC(=N)N)C(=O)N[C@@H](CCC(N)=O)C(=O)N(C)[C@@H](CCCNC(=N)N)C(=O)N[C@@H](Cc4ccc(O)cc4)C(N)=O)[C@@H](C)O)C(C)C)c(=O)c3c2)CC1)[C@@H](C)CC` [Example 47], the EC50 is 0.158 nM in experiment [1]; above 6000 nM in experiment [2]; above 6000 nM in experiment [3]; above 6000 nM in experiment [4]; 0.23 nM in experiment [5].

As usually defined, the EC50 is the concentration that produces a half-maximal response. Higher therefore signals a need for much substance.
